The values below are quoted from earlier work in patent US11744998B2, “Drug delivery devices with drug-permeable component and methods” (TARIS Biomedical LLC, priority 2015, dated 2023).

For this data set the following is noted: water at 37° C.

Structures can show the parent of a compound that is named as a salt.

For `Nc1ccn([C@@H]2O[C@H](CO)[C@@H](O)C2(F)F)c(=O)n1` [gemcitabine HCl], the approximate solubility is reported as approximately 80 mg/mL.
On to `O=C(O[C@H]1C[C@H]2CC[C@@H](C1)[N+]21CCCC1)C(O)(c1ccccc1)c1ccccc1` [trospium chloride], for which the approximate solubility is listed as approximately 500 mg/mL.
As to `Nc1ccn([C@@H]2O[C@H](CO)[C@@H](O)C2(F)F)c(=O)n1` [gemcitabine base], the approximate solubility is recorded as approximately 15 mg/mL.
`Cc1ccc(O)c([C@H](CCN(C(C)C)C(C)C)c2ccccc2)c1` [tolterodine tartrate]: the approximate solubility is approximately 12 mg/mL.
